Data published in paper PMC3228837 (Journal of medicinal chemistry, 2011).

Tests used:
[1] = molecular target: NaV1.2 (Rattus norvegicus, UniProt P04775); format: cell-based
[2] = molecular target: NaV1.6 (Mus musculus, UniProt Q9WTU3); format: cell-based
Sequence of NaV1.6 (Q9WTU3 whole entry, looked up): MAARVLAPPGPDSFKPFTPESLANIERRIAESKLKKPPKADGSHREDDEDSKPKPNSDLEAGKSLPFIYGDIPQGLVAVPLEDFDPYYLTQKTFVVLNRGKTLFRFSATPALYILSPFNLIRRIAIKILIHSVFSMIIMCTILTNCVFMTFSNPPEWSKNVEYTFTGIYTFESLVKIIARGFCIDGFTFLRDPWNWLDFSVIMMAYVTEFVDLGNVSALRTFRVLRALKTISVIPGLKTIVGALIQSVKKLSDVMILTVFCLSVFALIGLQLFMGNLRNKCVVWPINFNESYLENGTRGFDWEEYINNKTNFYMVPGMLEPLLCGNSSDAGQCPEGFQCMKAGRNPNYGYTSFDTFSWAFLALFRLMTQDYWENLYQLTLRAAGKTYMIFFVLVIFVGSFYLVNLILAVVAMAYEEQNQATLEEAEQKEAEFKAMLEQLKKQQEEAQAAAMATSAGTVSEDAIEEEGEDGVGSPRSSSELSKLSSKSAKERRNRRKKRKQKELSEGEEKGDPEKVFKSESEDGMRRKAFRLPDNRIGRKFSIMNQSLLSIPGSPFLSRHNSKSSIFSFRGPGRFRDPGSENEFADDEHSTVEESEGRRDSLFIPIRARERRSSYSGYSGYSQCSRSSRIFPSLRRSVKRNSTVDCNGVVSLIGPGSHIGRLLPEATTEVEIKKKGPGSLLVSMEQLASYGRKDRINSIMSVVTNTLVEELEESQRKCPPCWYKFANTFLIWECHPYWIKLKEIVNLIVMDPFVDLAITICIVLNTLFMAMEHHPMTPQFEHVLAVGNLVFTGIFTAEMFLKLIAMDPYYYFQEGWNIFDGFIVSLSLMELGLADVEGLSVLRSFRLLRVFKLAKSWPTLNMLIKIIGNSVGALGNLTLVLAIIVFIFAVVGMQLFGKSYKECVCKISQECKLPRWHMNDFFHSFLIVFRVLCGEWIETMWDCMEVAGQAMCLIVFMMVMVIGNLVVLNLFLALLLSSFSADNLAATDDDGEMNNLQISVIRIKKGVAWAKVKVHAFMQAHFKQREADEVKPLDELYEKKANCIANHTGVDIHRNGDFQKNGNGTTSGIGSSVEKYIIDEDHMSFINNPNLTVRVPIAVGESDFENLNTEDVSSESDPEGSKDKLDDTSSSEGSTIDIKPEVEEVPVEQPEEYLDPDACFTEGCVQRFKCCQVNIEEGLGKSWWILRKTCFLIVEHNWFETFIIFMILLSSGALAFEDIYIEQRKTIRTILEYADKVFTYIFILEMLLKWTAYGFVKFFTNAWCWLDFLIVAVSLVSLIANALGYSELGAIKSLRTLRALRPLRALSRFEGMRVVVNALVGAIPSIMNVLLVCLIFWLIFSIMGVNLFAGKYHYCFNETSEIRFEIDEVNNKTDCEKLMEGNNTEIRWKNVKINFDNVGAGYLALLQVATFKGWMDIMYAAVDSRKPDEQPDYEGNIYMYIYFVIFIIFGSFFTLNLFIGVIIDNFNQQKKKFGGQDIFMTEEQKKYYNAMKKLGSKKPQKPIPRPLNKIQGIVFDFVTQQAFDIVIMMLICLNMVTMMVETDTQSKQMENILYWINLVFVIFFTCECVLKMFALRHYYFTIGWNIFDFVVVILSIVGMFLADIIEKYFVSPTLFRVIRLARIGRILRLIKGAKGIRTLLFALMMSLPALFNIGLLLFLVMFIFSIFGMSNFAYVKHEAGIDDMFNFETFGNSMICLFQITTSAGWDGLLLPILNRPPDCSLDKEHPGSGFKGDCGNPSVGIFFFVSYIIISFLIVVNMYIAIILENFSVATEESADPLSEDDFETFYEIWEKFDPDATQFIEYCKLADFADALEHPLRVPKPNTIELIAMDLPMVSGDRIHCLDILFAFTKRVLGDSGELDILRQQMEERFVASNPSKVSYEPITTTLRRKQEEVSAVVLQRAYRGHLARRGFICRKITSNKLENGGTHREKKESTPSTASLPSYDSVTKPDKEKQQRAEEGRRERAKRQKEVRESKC

Sequence of NaV1.2 (P04775 whole entry, looked up): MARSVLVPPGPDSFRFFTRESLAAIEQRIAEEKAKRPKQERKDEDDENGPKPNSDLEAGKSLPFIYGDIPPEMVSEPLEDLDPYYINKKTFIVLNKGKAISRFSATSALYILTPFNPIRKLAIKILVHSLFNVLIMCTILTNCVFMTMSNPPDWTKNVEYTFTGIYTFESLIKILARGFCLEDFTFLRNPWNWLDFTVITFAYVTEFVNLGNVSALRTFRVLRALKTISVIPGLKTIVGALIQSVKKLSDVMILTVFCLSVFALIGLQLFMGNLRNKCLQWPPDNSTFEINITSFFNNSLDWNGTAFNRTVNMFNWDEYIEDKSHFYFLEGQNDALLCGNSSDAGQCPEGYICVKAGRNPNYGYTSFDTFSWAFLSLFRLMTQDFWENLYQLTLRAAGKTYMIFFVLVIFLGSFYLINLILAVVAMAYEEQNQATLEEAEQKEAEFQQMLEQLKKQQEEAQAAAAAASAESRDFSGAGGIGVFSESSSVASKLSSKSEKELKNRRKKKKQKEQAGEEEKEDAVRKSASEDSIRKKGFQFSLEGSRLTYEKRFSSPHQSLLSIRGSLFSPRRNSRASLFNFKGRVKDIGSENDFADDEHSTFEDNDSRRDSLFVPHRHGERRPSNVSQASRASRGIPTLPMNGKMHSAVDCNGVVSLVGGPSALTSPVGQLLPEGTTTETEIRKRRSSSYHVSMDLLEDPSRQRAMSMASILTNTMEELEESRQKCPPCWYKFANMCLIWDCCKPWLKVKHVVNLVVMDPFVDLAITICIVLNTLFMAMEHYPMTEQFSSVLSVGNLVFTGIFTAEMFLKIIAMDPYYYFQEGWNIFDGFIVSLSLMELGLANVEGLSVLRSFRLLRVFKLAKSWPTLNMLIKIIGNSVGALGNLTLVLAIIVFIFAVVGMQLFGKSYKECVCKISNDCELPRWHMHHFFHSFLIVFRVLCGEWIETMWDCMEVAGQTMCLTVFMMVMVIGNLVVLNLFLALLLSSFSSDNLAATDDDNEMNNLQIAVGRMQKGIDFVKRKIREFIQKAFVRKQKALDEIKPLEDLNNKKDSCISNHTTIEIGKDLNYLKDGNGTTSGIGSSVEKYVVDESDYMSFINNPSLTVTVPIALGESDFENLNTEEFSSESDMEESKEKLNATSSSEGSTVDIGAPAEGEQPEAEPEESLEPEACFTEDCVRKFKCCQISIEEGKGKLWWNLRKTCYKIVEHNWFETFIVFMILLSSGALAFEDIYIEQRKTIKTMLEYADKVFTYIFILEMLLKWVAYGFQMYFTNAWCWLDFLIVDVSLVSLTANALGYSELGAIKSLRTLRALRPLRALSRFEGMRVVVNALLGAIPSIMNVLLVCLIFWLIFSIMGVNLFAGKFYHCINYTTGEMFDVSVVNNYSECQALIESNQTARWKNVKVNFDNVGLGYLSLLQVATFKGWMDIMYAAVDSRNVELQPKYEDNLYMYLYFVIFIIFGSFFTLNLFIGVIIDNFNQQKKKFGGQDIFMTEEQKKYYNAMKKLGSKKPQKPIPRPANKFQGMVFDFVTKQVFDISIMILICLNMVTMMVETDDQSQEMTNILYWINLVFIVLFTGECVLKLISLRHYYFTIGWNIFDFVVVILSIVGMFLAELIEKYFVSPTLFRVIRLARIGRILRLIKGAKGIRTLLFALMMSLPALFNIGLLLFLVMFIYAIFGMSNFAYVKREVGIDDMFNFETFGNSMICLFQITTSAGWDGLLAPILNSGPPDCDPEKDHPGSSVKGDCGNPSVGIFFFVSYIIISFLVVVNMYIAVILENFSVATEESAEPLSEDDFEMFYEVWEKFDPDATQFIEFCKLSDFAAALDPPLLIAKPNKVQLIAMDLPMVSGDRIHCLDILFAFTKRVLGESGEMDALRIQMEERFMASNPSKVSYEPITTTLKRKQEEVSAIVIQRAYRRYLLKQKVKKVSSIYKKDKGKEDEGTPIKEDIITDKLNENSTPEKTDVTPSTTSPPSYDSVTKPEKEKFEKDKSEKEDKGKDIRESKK

Q: Which results are given for Ac-DSKWKRDHSR-NH2 [Peptide D5K9]?
A: % block of NaV1.2 [1]: 33.1 ± 0.9%; % block of NaV1.6 [2]: 36.0 ± 0.7%
